# Columns and labels:
# Test in all cases: relative viability (nuclei count vs DMSO), 5 days (fraction); higher = more cells survive
# [1] = compound: C1CN(CCN1)C2=CC=C(C=C2)C3=CN4C(=C(C=N4)C5=CC=NC6=CC=CC=C56)N=C3 [DM3189]
# Outline: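 Nuclei counted with MetaXpress define viability as the ratio of treated to vehicle wells, given as a median across plates. The lung cancer cell lines were in 1536-well plates, pinned with five √10-spaced library-drug doses and imaged at 4× after 5 days and Hoechst staining. Plates passed with control CV below 25% and at least one doubling.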
# [2] = compound: C1CN(CCN1)C2=CC=C(C=C2)C3=CN4C(=C(C=N4)C5=CC=NC6=CC=CC=C56)N=C3 [DM3189] + Nc1ncn([C@H]2C[C@H](O)[C@@H](CO)O2)c(=O)n1 [Decitabine] (partner 2 µM)
# Outline: (§1)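 Medians of duplicate plates are given as relative viability. That measure is the nuclei count in treated wells divided by the count in vehicle wells. Counts were taken on 4× images of lung cancer cell lines in 1536-well plates, 5 days after pin-tool dosing the day after seeding with one drug alone or a fixed anchor-drug dose plus five library-drug doses (not always all listed) in √10 steps.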
# [3] = compound: C1CN(CCN1)C2=CC=C(C=C2)C3=CN4C(=C(C=N4)C5=CC=NC6=CC=CC=C56)N=C3 [DM3189] + COc1cccc2cc(-c3nc([C@H]4CC[C@H](C(=O)O)CC4)n4ncnc(N)c34)[nH]c12 [OSI-027] (partner 0.5 µM)
# Outline: as §1
# [4] = compound: C1CN(CCN1)C2=CC=C(C=C2)C3=CN4C(=C(C=N4)C5=CC=NC6=CC=CC=C56)N=C3 [DM3189] + CS(=O)(=O)N1CCN(Cc2cc3nc(-c4cccc5[nH]ncc45)nc(N4CCOCC4)c3s2)CC1 [Pictilisib] (partner 1 µM)
# Outline: as §1
# [5] = compound: C1CN(CCN1)C2=CC=C(C=C2)C3=CN4C(=C(C=N4)C5=CC=NC6=CC=CC=C56)N=C3 [DM3189] + CC1(C)CCC(c2ccc(Cl)cc2)=C(CN2CCN(c3ccc(C(=O)NS(=O)(=O)c4ccc(N[C@H](CCN5CCOCC5)CSc5ccccc5)c(S(=O)(=O)C(F)(F)F)c4)cc3)CC2)C1 [Navitoclax] (partner 0.5 µM)
# Outline: as §1
Cell Line,relative viability ([1]; 0.08 µM),relative viability ([1]; 0.253 µM),relative viability ([1]; 0.8 µM),relative viability ([1]; 2.53 µM),relative viability ([2]; first compound 0.08 µM),relative viability ([2]; first compound 0.253 µM),relative viability ([2]; first compound 0.8 µM),relative viability ([2]; first compound 2.53 µM),relative viability ([3]; first compound 0.08 µM),relative viability ([3]; first compound 0.253 µM),relative viability ([3]; first compound 0.8 µM),relative viability ([3]; first compound 2.53 µM),relative viability ([4]; first compound 0.08 µM),relative viability ([4]; first compound 0.253 µM),relative viability ([4]; first compound 0.8 µM),relative viability ([4]; first compound 2.53 µM),relative viability ([5]; first compound 0.08 µM),relative viability ([5]; first compound 0.253 µM),relative viability ([5]; first compound 0.8 µM),relative viability ([5]; first compound 2.53 µM)
LK-2,0.687,0.657,0.633,0.537,0.307,0.278,0.201,0.187,0.193,0.155,0.159,0.174,0.378,0.278,0.262,0.306,0.72,0.626,0.483,0.57
LOU-NH91,1.16,0.921,0.832,0.924,0.854,0.799,0.739,0.863,0.869,0.719,0.681,0.801,0.534,0.517,0.477,0.519,0.762,0.688,0.523,0.607
LU99A,1.05,0.912,–,0.933,1.09,0.837,–,0.777,0.293,0.299,–,0.308,0.32,0.263,–,0.316,0.828,0.787,–,0.83
LXF-289,0.996,1.04,0.973,1.14,0.391,0.389,0.438,0.421,1.01,0.747,0.746,0.891,0.834,0.773,0.775,0.935,0.983,0.927,0.932,1.07
NCI-H23,1.13,0.805,0.804,0.842,0.308,0.304,0.284,0.314,0.664,0.594,0.457,0.577,0.637,0.462,0.385,0.442,0.917,0.794,0.742,0.741
NCI-H322M,1.06,0.907,0.874,0.707,0.628,0.683,0.767,0.696,0.622,0.596,0.541,0.506,0.565,0.526,0.462,0.447,1.33,1.25,1.28,1.52
NCI-H441,1.26,0.955,1.02,0.981,0.307,0.227,0.216,0.219,0.747,0.602,0.451,0.486,0.51,0.563,0.42,0.409,0.567,0.431,0.615,0.62
NCI-H460,1.01,0.949,0.855,1.12,0.449,0.468,0.438,0.555,1.12,0.72,0.598,0.549,0.387,0.464,0.223,0.43,1.2,1.18,0.996,0.904
NCI-H520,1.05,0.79,0.844,0.683,0.534,0.399,0.521,0.336,0.281,0.232,0.237,0.232,0.28,0.234,0.219,0.19,1,0.728,0.752,0.628
NCI-H596,1.13,0.85,1.05,0.996,1.09,1.09,0.842,1.19,0.799,0.746,0.615,0.643,0.419,0.247,0.412,0.407,1.01,1.09,0.917,1.06
NCI-H647,0.954,0.824,0.734,0.794,0.365,0.43,0.418,0.403,0.724,0.579,0.585,0.528,0.381,0.334,–,0.381,1.26,0.959,0.767,0.657
NCI-H727,1.02,0.815,0.735,0.986,0.886,0.769,0.846,0.976,0.471,0.606,0.486,0.583,0.593,0.347,–,0.227,0.461,0.373,–,0.511
NCI-H838,0.978,0.909,0.764,0.922,0.446,0.458,0.431,0.525,0.427,0.376,0.312,0.357,0.521,0.35,0.317,0.397,1.15,1.09,0.904,1.23
NCI-H1355,1.01,0.968,0.842,0.951,0.337,0.39,0.345,0.37,0.482,0.36,0.366,0.39,0.539,0.399,0.311,0.362,0.926,0.953,0.819,0.951
NCI-H1395,1.03,0.834,0.697,0.945,0.663,0.703,–,0.712,0.709,0.572,0.54,0.6,0.625,0.618,0.459,0.562,1.22,0.958,0.74,1.17
NCI-H1437,1.05,0.995,0.989,1,0.6,0.542,0.554,0.571,0.895,0.862,0.906,1.08,0.425,0.438,0.411,0.537,0.994,1.1,1.06,1.05
NCI-H1650,1.09,0.923,0.901,0.928,0.367,0.462,0.366,0.425,0.715,0.658,0.468,0.524,0.773,0.582,0.526,0.477,1.24,1.11,1.21,1.13
NCI-H1651,1.03,1.02,0.96,1.16,0.703,0.646,0.626,0.67,0.783,0.626,0.864,0.727,0.713,0.578,0.467,0.468,1.17,1.13,1.13,0.928
NCI-H1666,1.04,1.02,1.1,1.12,0.882,0.688,0.748,0.83,1.01,0.941,1.1,1.01,0.439,0.595,0.508,0.437,1.11,1.09,0.895,1.17
NCI-H1734,1.13,0.95,0.916,0.888,0.528,0.506,0.49,0.524,0.684,0.572,0.592,0.565,0.541,0.417,0.442,0.383,0.903,0.81,0.774,0.844
NCI-H1755,0.989,0.987,0.811,1.04,0.739,0.694,0.729,0.671,0.732,0.688,0.574,0.786,0.51,0.417,0.334,0.399,0.926,0.904,0.701,0.965
NCI-H1792,1.27,1,0.712,0.868,0.529,0.519,0.397,0.579,0.585,0.703,0.661,0.839,0.228,0.248,0.165,0.271,0.584,0.601,0.443,0.23
NCI-H1793,1.22,0.991,0.929,1.01,0.55,0.458,0.461,0.541,0.279,0.247,0.245,0.319,0.311,0.306,0.281,0.31,0.422,0.396,0.421,0.478
NCI-H1915,1.03,0.942,0.793,0.87,0.261,0.253,0.257,0.257,0.823,0.62,0.543,0.553,0.974,0.915,0.646,0.891,0.772,0.777,0.729,0.857
NCI-H1944,1.19,0.991,–,1.02,0.42,0.467,0.384,0.455,0.513,0.397,–,0.461,0.405,0.336,–,0.389,1.07,1.03,–,1.15
NCI-H1975,1.07,0.972,0.793,0.881,0.374,0.41,0.361,0.336,1,0.627,0.666,0.514,0.42,0.309,0.269,0.201,1.16,1.08,0.858,0.821
NCI-H1993,1.01,0.913,0.831,1.05,0.579,0.654,0.571,0.499,0.541,0.49,0.476,0.506,–,0.85,0.852,0.718,–,0.883,0.646,0.999
NCI-H2009,1.1,1.03,0.893,1.05,0.416,0.354,0.412,0.417,0.684,0.577,0.553,0.579,1,0.725,0.572,0.75,1.17,1.19,1.06,1.23
NCI-H2023,1,0.955,0.978,0.854,0.229,0.225,0.205,0.201,0.428,0.388,0.295,0.398,0.26,0.24,0.201,0.235,0.992,1.04,0.909,0.842
NCI-H2085,1,0.933,1.04,1.03,0.504,0.565,0.564,0.591,0.835,0.721,0.722,0.864,0.379,0.473,0.393,0.409,1.2,1.16,1.19,1.11
